# ChEMBL document CHEMBL1697731, “Cheminformatics analysis of assertions mined from literature that describe drug-induced liver injury in different species” (Chem Res Toxicol, 2010)
# Key:
# Hepatotoxicity [1] = test: Literature-mined compound from Fourches et al multi-species drug-induced liver injury (DILI) dataset, effect in non-rodents
# Hepatotoxicity [2] = test: Literature-mined compound from Fourches et al multi-species drug-induced liver injury (DILI) dataset, effect in rodents; details: rodentia
# Hepatotoxicity [3] = test: Literature-mined compound from Fourches et al multi-species drug-induced liver injury (DILI) dataset, effect in humans; details: human
SMILES,Hepatotoxicity (Hepatotoxicity [1]; Liver),Hepatotoxicity (Hepatotoxicity [2]; Liver),Hepatotoxicity (Hepatotoxicity [3]; Liver),Hepatotoxicity (Hepatotoxicity [1]),Hepatotoxicity (Hepatotoxicity [2]),Hepatotoxicity (Hepatotoxicity [3])
CC(C)c1cccc(C(C)C)c1O [PROPOFOL],drug-induced liver injury reported,drug-induced liver injury reported,drug-induced liver injury reported,–,–,–
COC(=O)C1=C(C)NC(C)=C(C(=O)OC)C1c1ccccc1[N+](=O)[O-] [NIFEDIPINE],–,–,–,drug-induced liver injury reported,drug-induced liver injury reported,drug-induced liver injury reported
CCN(CC)CCNC(=O)c1ccc(N)cc1 [PROCAINAMIDE],–,–,–,no drug-induced liver injury reported,drug-induced liver injury reported,drug-induced liver injury reported
COc1ccc2cc1Oc1ccc(cc1)C[C@H]1c3cc(c(OC)cc3CCN1C)Oc1c(OC)c(OC)cc3c1[C@H](C2)N(C)CC3 [FANCHININ],–,–,–,no drug-induced liver injury reported,drug-induced liver injury reported,drug-induced liver injury reported
N[C@@H](Cc1cc(I)c(Oc2ccc(O)c(I)c2)c(I)c1)C(=O)O [LIOTHYRONINE],–,–,–,no drug-induced liver injury reported,drug-induced liver injury reported,drug-induced liver injury reported
O=P(O)(O)C(Cl)(Cl)P(=O)(O)O [CLODRONIC ACID],–,–,–,no drug-induced liver injury reported,drug-induced liver injury reported,no drug-induced liver injury reported
COc1cc(NC(C)CCCN)c2ncccc2c1 (stereo not drawn) [PRIMAQUINE],–,–,–,no drug-induced liver injury reported,drug-induced liver injury reported,drug-induced liver injury reported
Cc1ccc(S(=O)(=O)NC(=O)NN2CCCCCC2)cc1 [TOLAZAMIDE],–,–,–,no drug-induced liver injury reported,drug-induced liver injury reported,drug-induced liver injury reported
CC[C@H](C)C(=O)O[C@H]1C[C@H](O)C=C2C=C[C@H](C)[C@H](CC[C@@H](O)C[C@@H](O)CC(=O)O)[C@H]21 [PRAVASTATIN],–,–,–,drug-induced liver injury reported,drug-induced liver injury reported,drug-induced liver injury reported
CC(C)(O)c1ccccc1CC[C@@H](SCC1(CC(=O)O)CC1)c1cccc(/C=C/c2ccc3ccc(Cl)cc3n2)c1 [MONTELUKAST],–,–,–,no drug-induced liver injury reported,no drug-induced liver injury reported,drug-induced liver injury reported
C[C@H](N[C@@H](CCc1ccccc1)C(=O)O)C(=O)N1CCC[C@H]1C(=O)O [ENALAPRILAT ANHYDROUS],–,–,–,no drug-induced liver injury reported,no drug-induced liver injury reported,drug-induced liver injury reported
Cc1nc2ccc(CN(C)c3ccc(C(=O)N[C@@H](CCC(=O)O)C(=O)O)s3)cc2c(=O)[nH]1 [RALTITREXED],–,–,–,no drug-induced liver injury reported,no drug-induced liver injury reported,drug-induced liver injury reported
NC(=O)c1ccccc1O [SALICYLAMIDE],–,–,–,no drug-induced liver injury reported,drug-induced liver injury reported,drug-induced liver injury reported
Nc1nc2c(ncn2CCC(CO)CO)c(=O)[nH]1 [PENCICLOVIR],–,–,–,no drug-induced liver injury reported,no drug-induced liver injury reported,drug-induced liver injury reported
COc1ccc2cc(CCC(C)=O)ccc2c1 [NABUMETONE],–,–,–,no drug-induced liver injury reported,drug-induced liver injury reported,no drug-induced liver injury reported
Cc1ccc(S(=O)(=O)NC(=O)NN2CC3CCCC3C2)cc1 (stereo not drawn) [GLICLAZIDE],–,–,–,no drug-induced liver injury reported,no drug-induced liver injury reported,drug-induced liver injury reported
CN(C)C(=O)Oc1cccc([N+](C)(C)C)c1.[Br-] [NEOSTIGMINE BROMIDE],–,–,–,no drug-induced liver injury reported,drug-induced liver injury reported,no drug-induced liver injury reported
CC[C@H]1OC(=O)[C@H](C)[C@@H](O[C@H]2C[C@@](C)(OC)[C@@H](O)[C@H](C)O2)[C@H](C)[C@@H](O[C@@H]2O[C@H](C)C[C@H](N(C)C)[C@H]2O)[C@](C)(OC)C[C@@H](C)C(=O)[C@H](C)[C@@H](O)[C@]1(C)O [CLARITHROMYCIN],–,–,–,no drug-induced liver injury reported,drug-induced liver injury reported,drug-induced liver injury reported

SMILES,Hepatotoxicity (Hepatotoxicity [1]; Liver),Hepatotoxicity (Hepatotoxicity [2]; Liver),Hepatotoxicity (Hepatotoxicity [3]; Liver),Hepatotoxicity (Hepatotoxicity [1]),Hepatotoxicity (Hepatotoxicity [2]),Hepatotoxicity (Hepatotoxicity [3])
CNC(=O)Oc1cccc2ccccc12 [CARBARIL],–,–,–,no drug-induced liver injury reported,drug-induced liver injury reported,no drug-induced liver injury reported
COc1cc2nc(N(C)CCCNC(=O)C3CCCO3)nc(N)c2cc1OC (stereo not drawn) [ALFUZOSIN],–,–,–,no drug-induced liver injury reported,no drug-induced liver injury reported,drug-induced liver injury reported
COc1ccc(C(=O)N2CCN(c3ccc4c(c3)CCC(=O)N4)CC2)cc1OC [VESNARINONE],–,–,–,no drug-induced liver injury reported,drug-induced liver injury reported,drug-induced liver injury reported
CCCCNc1cc(C(=O)O)cc(S(N)(=O)=O)c1Oc1ccccc1 [BUMETANIDE],–,–,–,drug-induced liver injury reported,no drug-induced liver injury reported,no drug-induced liver injury reported
C[S+](C)[O-] [DIMETHYL SULFOXIDE],–,–,–,drug-induced liver injury reported,drug-induced liver injury reported,drug-induced liver injury reported
Clc1ccccc1C(c1ccccc1)(c1ccccc1)n1ccnc1 [CLOTRIMAZOLE],–,–,–,no drug-induced liver injury reported,drug-induced liver injury reported,no drug-induced liver injury reported
CC(=O)N(CC(O)CO)c1c(I)c(C(=O)NCC(O)CO)c(I)c(C(=O)NCC(O)CO)c1I (stereo not drawn) [IOHEXOL],–,–,–,drug-induced liver injury reported,no drug-induced liver injury reported,no drug-induced liver injury reported
C=C(C)[C@@H]1CCC(C)=C[C@H]1c1c(O)cc(CCCCC)cc1O [CANNABIDIOL],–,–,–,no drug-induced liver injury reported,drug-induced liver injury reported,drug-induced liver injury reported
O=C([O-])c1ccccc1.[Na+] [SODIUM BENZOATE],–,–,–,no drug-induced liver injury reported,drug-induced liver injury reported,no drug-induced liver injury reported
CC(C)C[C@H]1C(=O)N2CCC[C@H]2[C@]2(O)O[C@](NC(=O)[C@@H]3C=C4c5cccc6[nH]c(Br)c(c56)C[C@H]4N(C)C3)(C(C)C)C(=O)N12 [BROMOCRIPTINE],–,–,–,no drug-induced liver injury reported,drug-induced liver injury reported,no drug-induced liver injury reported
COCCc1ccc(OCC(O)CNC(C)C)cc1 (stereo not drawn) [METOPROLOL],–,–,–,no drug-induced liver injury reported,drug-induced liver injury reported,drug-induced liver injury reported
CNC(=C[N+](=O)[O-])NCCSCc1ccc(CN(C)C)o1 [RANITIDINE],–,–,–,drug-induced liver injury reported,drug-induced liver injury reported,drug-induced liver injury reported
Cc1cn[nH]c1 [FOMEPIZOLE],–,–,–,no drug-induced liver injury reported,drug-induced liver injury reported,drug-induced liver injury reported
CCCCC[C@H](O)/C=C/[C@H]1[C@H](O)CC(=O)[C@@H]1CCCCCCC(=O)O [ALPROSTADIL],–,–,–,drug-induced liver injury reported,drug-induced liver injury reported,drug-induced liver injury reported
CC[C@]1(O)C[C@@H]2CN(CCc3c([nH]c4ccccc34)[C@@](C(=O)OC)(c3cc4c(cc3OC)N(C)[C@H]3[C@@](O)(C(=O)OC)[C@H](OC(C)=O)[C@]5(CC)C=CCN6CC[C@]43[C@@H]65)C2)C1 [VINBLASTINE],–,–,–,no drug-induced liver injury reported,drug-induced liver injury reported,drug-induced liver injury reported
Oc1cc(O)c2c(c1)O[C@H](c1ccc(O)c(O)c1)[C@@H](O)C2 [CATECHIN],–,–,–,drug-induced liver injury reported,drug-induced liver injury reported,drug-induced liver injury reported
C[C@H]1c2cccc(O)c2C(=O)C2=C(O)[C@]3(O)C(=O)C(C(N)=O)=C(O)[C@@H](N(C)C)[C@@H]3[C@@H](O)[C@@H]21.O [DOXYCYCLINE],–,–,–,drug-induced liver injury reported,drug-induced liver injury reported,drug-induced liver injury reported
CC(C)Nc1ncccn1.O=P(O)(O)O [ISAXONINE PHOSPHATE],–,–,–,no drug-induced liver injury reported,no drug-induced liver injury reported,drug-induced liver injury reported
